Source: patent US11555072B2, “A33 antibody compositions and methods of using the same in radioimmunotherapy” (MEMORIAL SLOAN KETTERING CANCER CENTER, priority 2017, dated 2023)

Legend:
SW1222 tumor = experiment: i.p. SW1222 tumor model with i.v. T cells; assay type: in vivo, mice; details: 6 doses i.v. over 3 weeks, T cells weekly over 2 weeks
Protocol: (§1) For intraperitoneal (i.p.) tumor models, luciferase expressing LS174T-luc or SW1222-luc cells were resuspended in RPMI medium and injected intraperitoneally into DKO mice. Human effector cells were supplied as activated T cells and injected intravenously. Mice were treated with 2-3 weekly cycles of antibody-T cell-antibody regimen, with each component separated by 3-4 days. Growth of tumors was followed weekly by measuring luminescence signals on an IVIS Spectrum in vivo imaging system ([…]® Inc., Waltham, Mass.) after injection of 3.3 mg/mouse of luciferin. Luminescence was analyzed and quantified using Living Image Software ([…]®-Inc., Waltham, Mass.).
For the SW1222 cell line, tumors were planted intraperitoneally and treated with 6 doses of i.v. antibody over 3 weeks, and i.v. T cell weekly over 2 weeks. […] It is anticipated that additional treatment cycles will completely eradicate the growth of tumors, as in subcutaneous models.

[1] = SEC-HPLC stability test (37° C. incubation, freeze-thaw); assay type: physicochemical
Protocol: SEC-HPLC analysis. Size and purity of huA33-BsAb was analyzed using HPLC system (Shimadzu Scientific Instruments Inc., Columbia, Md.). Monomeric species were identified using a molecular weight standard (Bio-Rad Laboratories, Hercules, Calif.) and percent monomer was calculated based on the relative area under curve (AUC) of different non-buffer peaks.
The huA33 antibody was reformatted into bispecific format by fusing scFv of humanized OKT3 to the C-terminus of light chain via a flexible GS linker (FIG. 1(A)). The DNA construct was used to establish a CHO-S stable cell line and huA33-BsAb was purified from the supernatant. Protein yield using protein A chromatography was 50 mg/L to 100 mg/L without extensive optimization. Similar yields were observed using EXPI293™ transient expression system (data not shown). One-step protein A purification routinely produced protein with purity above 90%, as measured by SEC-HPLC.

LS174T tumor = experiment: i.p. LS174T-luc tumor model with i.v. activated T cells; assay type: in vivo, mice
Protocol: as §1
To simulate malignant ascites, a common occurrence in colon cancers, luciferase-expressing LS174T cells were planted intraperitoneally into DKO mice. When tumor growth was confirmed by luminescence, mice were randomized into different treatment groups, treated with no antibody group (tumor only), tumor+T cell only group (tumor+ATC), or i.v. huA33-BsAb (7 doses over 3 weeks), plus weekly T cell injections over 3 weeks. Treatment was started on day 5 after tumor implantation. All T cells were injected through retro-orbital route.

T cells [2] = experiment: In vivo T cell proliferation assay; details: CFSE-labeled PBMCs + Colo205 s.c. in DKO mice, antibody i.v. next day, tumors analyzed 4 days later
Protocol: To determine if T cells can be activated in vivo, an in vivo proliferation assay was conducted by mixing CFSE-labeled PBMCs with Colo205 cells and the mixture was implanted subcutaneously onto DKO mice. huA33-BsAb was injected intravenously the next day and the tumors were isolated after another 4 days and analyzed by FACS.

T cells [3] = experiment: Cytokines and cytolytic molecules release assay; assay type: cell-based, human; details: T cells + Colo205, E:T 5:1, over 4 days
Protocol: Cytokines and cytolytic molecules release assay. T cells were purified from PBMCs using pan T cell isolation kit (Miltenyi Biotec, Cambridge, Mass.). Target and control tumor cells were incubated with 2×10^6 cells/well at an effector to target ratio of 5:1 in 24-well plates in triplicates, with 2 ml total volume per well. Culture supernatants were collected at 24 hours, 48 hours, 72 hours and 96 hours and cytokine levels were measured with flow cytometry using LEGENDplex™ human CD8/NK Panel (BIOLEGEND®, San Diego, Calif.) according to the manufacturer's protocol.
HuA33-BsAb induced secretion of inflammatory cytokines and cytolytic molecules. The secreted cytokine profile of T cells activated by huA33-BsAb in the presence of target tumors was examined. Total T cells were purified from PBMCs and cultured in the presence of Colo205 tumor cells at an effector to target ratio of 5:1. To estimate nonspecific activation, SKMEL5 cells were used as a negative control. Cell culture supernatants were collected daily over 4 days and the levels of cytokines and cytotoxic molecules were measured using a flow cytometry based multiplex method. […] Similarly, a significant amount of IL-6 was secreted by activated T cells. Th17 cytokine IL-17a was also secreted at high levels.

LS174T tumors = experiment: s.c. LS174T xenograft with s.c. PBMCs; assay type: in vivo, mice; details: 6 doses over 3 weeks
Protocol: In vivo tumor therapy. For subcutaneous (s.c.) tumor models, LS174T, Colo205 or SNU16 cells were combined with fresh PBMCs at a 1:1 ratio, mixed with […]® (volume of cell:gel=1:2), and implanted (100 μl/mouse) at the flank of Balb/c Rag2^−/−IL2Rγ^−/− (DKO) mice (now commercially available from Taconic as CIEA BRG mice). Treatment started after confirmation of tumor presence with a BIW schedule at 100 μg/mouse and continued for 3-4 weeks. Tumor growth was monitored by weekly measurement of tumor volume using a caliper or a digital device Peira TM900 Scanner (Peira Scientific Instruments, Turnhout, Belgium).
HuA33-BsAb cured MSI tumor LSI74T in a s.c. xenograft model and suppressed tumor growth in an i.p. model. LS174T cells were mixed with PBMCs at a 1:1 ratio and implanted subcutaneously in DKO mice. […] Mice from tumor+PBMC group developed tumor ulceration and had to be euthanized.

huA33-BsAb: huA33 IgG with humanized OKT3 scFv fused to light chain C-terminus, N297A and K322A; SEQ ID NO: 19 and 21
tumor growth and survival (SW1222 tumor): suppressed tumor growth and significantly prolonged mice survival | percentage of monomers after incubation ([1]; 37° C. for 4 weeks, SEC-HPLC): only a minimal decrease in the percentage of monomers | SEC-HPLC profile after freeze-thaw ([1]; four cycles of freeze-thaw): did not cause noticeable changes in SEC-HPLC profile | tumor growth in the abdomen (LS174T tumor; i.v., 7 doses over 3 weeks, weekly T cells): significantly suppressed metastatic growth of LS174T tumor | time all mice remained alive (LS174T tumor; without further treatment): at least 60 days | CD4(+) and CD8(+) T cells that upregulated CD25 expression while undergoing cell division (T cells [2]): around 25% | release of cytotoxic components (sFasL, sFas, Granzyme A, Granzyme B, Perforin, Granulysin) (T cells [3]): all released in the supernatant | secretion of cytokines by activated T cells (T cells [3]): both Th1 cytokines (IL-2, IFNγ, TNFα) and Th2 cytokines (IL-4, IL-10) were secreted by activated T cells | time mice remained tumor free (LS174T tumors): at least 120 days | tumor response (LS174T tumors): effectively cured the mice
